Data as given in patent US20240116951A1, “HETEROCYCLIC COMPOUNDS AND USES THEREOF” (Kumquat Biosciences Inc., priority 2022, published 2024).
Like-named read-outs stand apart in the source and are kept apart here.

Assays:
Type in all cases: binding
KRAS WT = target: T1, KRAS WT (Homo sapiens, UniProt P01116); assay: HTRF assay of wildtype K-Ras interaction with SOS1 (PPI-HTRF)
T1 construct: made in house; host or cells: E. coli, e.g. BL21 (DE3)
Summary of the method: (§1)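 Read-out: HTRF ratio 665/620 nm (ex 337 nm) after ~10 min or longer. Donor anti-GST-Eu(K) on GST-K-Ras and acceptor anti-6His-XL665 on His-hSOS1, in HEPES pH 7.4 buffer with DTT, BSA and Igepal. Duplicate dilution series from 10 μM down to 0.01 μM gave IC50 values.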

KRAS G12S = target: T2, KRAS G12S (Homo sapiens, UniProt P01116, G12S); assay: HTRF assay of K-Ras G12S interaction with SOS1 (PPI-HTRF)
T2 construct: made in house; host or cells: E. coli, e.g. BL21 (DE3)
Summary of the method: as §1

KRAS G12D = target: T3, KRAS G12D (Homo sapiens, UniProt P01116, G12D); assay: HTRF assay of K-Ras G12D interaction with SOS1 (PPI-HTRF)
T3 construct: made in house; host or cells: E. coli, e.g. BL21 (DE3)
Summary of the method: as §1

[1] = HTRF, 5 nM KRAS WT, read-out: PPI-HTRF-5 nM KRAS WT
[2] = 5 nM KRAS G12S, read-out: PPI-HTRF-5 nM KRAS G12S
[3] = HTRF, 5 nM KRAS G12D, read-out: PPI-HTRF-5 nM KRAS G12D

T2 sequence (P01116 1-188 isoform P01116-2 G12S): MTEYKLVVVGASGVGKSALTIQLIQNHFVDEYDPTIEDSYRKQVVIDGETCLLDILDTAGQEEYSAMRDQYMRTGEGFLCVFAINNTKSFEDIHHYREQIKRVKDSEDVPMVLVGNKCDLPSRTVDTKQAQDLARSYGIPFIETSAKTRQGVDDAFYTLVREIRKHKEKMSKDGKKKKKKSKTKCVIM
T1 sequence (P01116 1-188 isoform P01116-2): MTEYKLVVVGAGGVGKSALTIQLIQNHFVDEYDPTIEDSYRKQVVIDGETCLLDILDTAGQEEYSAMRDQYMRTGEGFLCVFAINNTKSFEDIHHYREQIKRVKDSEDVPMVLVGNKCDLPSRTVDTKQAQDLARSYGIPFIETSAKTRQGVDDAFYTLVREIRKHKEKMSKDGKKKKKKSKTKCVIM
T3 sequence (P01116 1-188 isoform P01116-2 G12D): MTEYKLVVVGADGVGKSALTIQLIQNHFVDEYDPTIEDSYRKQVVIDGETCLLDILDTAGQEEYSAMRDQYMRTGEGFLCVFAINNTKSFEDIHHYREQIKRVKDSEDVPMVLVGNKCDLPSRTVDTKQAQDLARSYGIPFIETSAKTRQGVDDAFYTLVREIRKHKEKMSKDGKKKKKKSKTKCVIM

## N#Cc1c(N)sc2c(F)ccc(-c3c(Cl)cc4c(N5CCC6(CCN6C(=O)n6ccnc6C#N)C5)nc(OC[C@@]56CCCN5C[C@H](F)C6)nc4c3F)c12 (stereo partly drawn) [Compound 287, 1-(6-(7-(2-amino-3-cyano-7-fluorobenzo[b]thiophen-4-yl)-6-chloro-8-fluoro-2-(((2R,7aS)-2-fluorotetrahydro-1H-pyrrolizin-7a(5H)-yl)methoxy)quinazolin-4-yl)-1,6-diazaspiro[3.4]octane-1-carbonyl)-1H-imidazole-2-carbonitrile]
KRAS WT; [1]
  IC50: < 5 µM
KRAS G12S; [2]
  IC50: < 5 µM
KRAS G12D; [3]
  IC50: < 5 µM

## COCC(=O)N1CCC12CCN(c1nc(O[C@@H](C)[C@@H]3CCCN3C)nc3c(F)c(-c4ccc(F)c5sc(N)c(C#N)c45)c(Cl)cc13)C2 (stereo partly drawn) [Compound 254, 2-amino-4-(6-chloro-8-fluoro-4-(1-(2-methoxyacetyl)-1,6-diazaspiro[3.4]octan-6-yl)-2-((S)-1-((S)-1-methylpyrrolidin-2-yl)ethoxy)quinazolin-7-yl)-7-fluorobenzo[b]thiophene-3-carbonitrile]
KRAS WT; [1]
  IC50: < 5 µM
KRAS G12S; [2]
  IC50: < 5 µM
KRAS G12D; [3]
  IC50: < 5 µM

## N#Cc1c(N)sc2c(F)ccc(-c3c(Cl)cc4c(N5CCC6(COCCN6C#N)C5)nc(OC[C@@]56CCCN5C[C@H](F)C6)nc4c3F)c12 (stereo partly drawn) [Compound 302, 2-(7-(2-amino-3-cyano-7-fluorobenzo[b]thiophen-4-yl)-6-chloro-8-fluoro-2-(((2R,7aS)-2-fluorotetrahydro-1H-pyrrolizin-7a(5H)-yl)methoxy)quinazolin-4-yl)-9-oxa-2,6-diazaspiro[4.5]decane-6-carbonitrile]
KRAS WT; [1]
  IC50: < 5 µM
KRAS G12S; [2]
  IC50: < 5 µM
KRAS G12D; [3]
  IC50: < 5 µM

## Nc1nc2c(-c3c(Cl)cc4c(N5CCC6(CCN6)CC5)nc(OC[C@@]56CCCN5C[C@H](F)C6)nc4c3F)ccc(F)c2s1 [Compound 265, 4-(6-chloro-8-fluoro-2-(((2R,7aS)-2-fluorotetrahydro-1H-pyrrolizin-7a(5H)-yl)methoxy)-4-(1,7-diazaspiro[3.5]nonan-7-yl)quinazolin-7-yl)-7-fluorobenzo[d]thiazol-2-amine]
KRAS WT; [1]
  IC50: < 5 µM
KRAS G12S; [2]
  IC50: > 5 µM
KRAS G12D; [3]
  IC50: < 5 µM

## Cc1nc(C)n(C(=O)N2CC[C@@]23CCN(c2nc(OC[C@@]45CCCN4C[C@H](F)C5)nc4c(F)c(-c5ccc(F)c6sc(N)c(C#N)c56)c(Cl)cc24)C3)n1 [Compound 307, 2-amino-4-(6-chloro-4-((R)-1-(3,5-dimethyl-1H-1,2,4-triazole-1-carbonyl)-1,6-diazaspiro[3.4]octan-6-yl)-8-fluoro-2-(((2R,7aS)-2-fluorotetrahydro-1H-pyrrolizin-7a(5H)-yl)methoxy)quinazolin-7-yl)-7-fluorobenzo[b]thiophene-3-carbonitrile]
KRAS WT; [1]
  IC50: < 5 µM
KRAS G12S; [2]
  IC50: < 5 µM
KRAS G12D; [3]
  IC50: < 5 µM

## C[C@H]1CN(C(=O)n2cncn2)[C@]12CCN(c1nc(OC[C@@]34CCCN3C[C@H](F)C4)nc3c(F)c(-c4ccc(F)c5sc(N)c(C#N)c45)c(Cl)cc13)C2 [Compound 324, 2-amino-4-(6-chloro-8-fluoro-2-(((2R,7aS)-2-fluorotetrahydro-1H-pyrrolizin-7a(5H)-yl)methoxy)-4-((3S,4R)-3-methyl-1-(1H-1,2,4-triazole-1-carbonyl)-1,6-diazaspiro[3.4]octan-6-yl)quinazolin-7-yl)-7-fluorobenzo[b]thiophene-3-carbonitrile]
KRAS WT; [1]
  IC50: < 5 µM
KRAS G12S; [2]
  IC50: < 5 µM
KRAS G12D; [3]
  IC50: < 5 µM

## N#Cc1c(N)sc2c(F)ccc(-c3c(Cl)cc4c(N5CCC6(CCN6C(=O)n6nccc6C#N)C5)nc(OC[C@@]56CCCN5C[C@H](F)C6)nc4c3F)c12 (stereo partly drawn) [Compound 290, 1-(6-(7-(2-amino-3-cyano-7-fluorobenzo[b]thiophen-4-yl)-6-chloro-8-fluoro-2-(((2R,7aS)-2-fluorotetrahydro-1H-pyrrolizin-7a(5H)-yl)methoxy)quinazolin-4-yl)-1,6-diazaspiro[3.4]octane-1-carbonyl)-1H-pyrazole-5-carbonitrile]
KRAS WT; [1]
  IC50: < 5 µM
KRAS G12S; [2]
  IC50: < 5 µM
KRAS G12D; [3]
  IC50: < 5 µM

## N#Cc1c(N)sc2c(F)ccc(-c3c(Cl)cc4c(N5CCC6(CC5)CCN6C(=O)C5CC5(F)F)nc(OC[C@@]56CCCN5C[C@H](F)C6)nc4c3F)c12 (stereo partly drawn) [Compound 342, 2-amino-4-(6-chloro-4-(1-(2,2-difluorocyclopropane-1-carbonyl)-1,7-diazaspiro[3.5]nonan-7-yl)-8-fluoro-2-(((2R,7aS)-2-fluorotetrahydro-1H-pyrrolizin-7a(5H)-yl)methoxy)quinazolin-7-yl)-7-fluorobenzo[b]thiophene-3-carbonitrile]
KRAS WT; [1]
  IC50: < 5 µM
KRAS G12S; [2]
  IC50: < 5 µM
KRAS G12D; [3]
  IC50: < 5 µM

## Nc1nc2c(-c3c(F)c4nc(OC[C@@]56CCCN5C[C@H](F)C6)nc(N5CCC6(CCN6C(=O)n6cncn6)C5)c4c(=O)n3C3CC3)ccc(F)c2s1 (stereo partly drawn) [Compound 257, 4-(1-(1H-1,2,4-triazole-1-carbonyl)-1,6-diazaspiro[3.4]octan-6-yl)-7-(2-amino-7-fluorobenzo[d]thiazol-4-yl)-6-cyclopropyl-8-fluoro-2-(((2R,7aS)-2-fluorotetrahydro-1H-pyrrolizin-7a(5H)-yl)methoxy)pyrido[4,3-d]pyrimidin-5(6H)-one]
KRAS WT; [1]
  IC50: < 5 µM
KRAS G12S; [2]
  IC50: < 5 µM
KRAS G12D; [3]
  IC50: < 5 µM

## CN1CCC[C@H]1COc1nc(N2CCC3(CC2)NC(=O)NC3=O)c2cc(Cl)c(-c3cccc4sc(N)nc34)c(F)c2n1 [Compound 249, 8-(7-(2-aminobenzo[d]thiazol-4-yl)-6-chloro-8-fluoro-2-(((S)-1-methylpyrrolidin-2-yl)methoxy)quinazolin-4-yl)-1,3,8-triazaspiro[4.5]decane-2,4-dione]
KRAS WT; [1]
  IC50: < 5 µM
KRAS G12S; [2]
  IC50: < 5 µM
KRAS G12D; [3]
  IC50: < 5 µM

## N#Cc1c(N)sc2c(F)ccc(-c3c(Cl)cc4c(N5CCC6(CCN6C(=O)Oc6ccc([N+](=O)[O-])cc6)C5)nc(OC[C@@]56CCCN5C[C@H](F)C6)nc4c3F)c12 (stereo partly drawn) [Compound 298, 4-nitrophenyl 6-(7-(2-amino-3-cyano-7-fluorobenzo[b]thiophen-4-yl)-6-chloro-8-fluoro-2-(((2R,7aS)-2-fluorotetrahydro-1H-pyrrolizin-7a(5H)-yl)methoxy)quinazolin-4-yl)-1,6-diazaspiro[3.4]octane-1-carboxylate]
KRAS WT
  IC50: < 5 µM
KRAS G12S; PPI-HTRF-5 nM KRAS G12S
  IC50: < 5 µM
KRAS G12D
  IC50: < 5 µM

## N#Cc1c(N)sc2c(F)ccc(-c3c(Cl)cc4c(N5CCOCC6(CCN6C(=O)n6cncn6)C5)nc(OC[C@@]56CCCN5C[C@H](F)C6)nc4c3F)c12 (stereo partly drawn) [Compound 351, 4-(4-(1-(1H-1,2,4-triazole-1-carbonyl)-6-oxa-1,9-diazaspiro[3.6]decan-9-yl)-6-chloro-8-fluoro-2-(((2R,7aS)-2-fluorotetrahydro-1H-pyrrolizin-7a(5H)-yl)methoxy)quinazolin-7-yl)-2-amino-7-fluorobenzo[b]thiophene-3-carbonitrile]
KRAS WT; [1]
  IC50: < 5 µM
KRAS G12S; [2]
  IC50: < 5 µM
KRAS G12D; [3]
  IC50: < 5 µM

## N#Cc1c(N)sc2c(F)ccc(-c3c(Cl)cc4c(N5CC[C@]6(CCN6C(=O)n6cncn6)C5)nc(OC[C@@]56CCCN5C[C@H](F)C6)nc4c3F)c12 [Compound 305, 4-(4-((S)-1-(1H-1,2,4-triazole-1-carbonyl)-1,6-diazaspiro[3.4]octan-6-yl)-6-chloro-8-fluoro-2-(((2R,7aS)-2-fluorotetrahydro-1H-pyrrolizin-7a(5H)-yl)methoxy)quinazolin-7-yl)-2-amino-7-fluorobenzo[b]thiophene-3-carbonitrile]
KRAS WT; [1]
  IC50: < 5 µM
KRAS G12S; [2]
  IC50: < 5 µM
KRAS G12D; [3]
  IC50: < 5 µM

## Nc1nc2c(-c3c(Cl)cc4c(N5CCC6(CC5)CCN6C(=O)n5cncn5)nc(OC[C@@]56CCCN5C[C@H](F)C6)nc4c3F)ccc(F)c2s1 [Compound 269, (7-(7-(2-amino-7-fluorobenzo[d]thiazol-4-yl)-6-chloro-8-fluoro-2-(((2R,7aS)-2-fluorotetrahydro-1H-pyrrolizin-7a(5H)-yl)methoxy)quinazolin-4-yl)-1,7-diazaspiro[3.5]nonan-1-yl)(1H-1,2,4-triazol-1-yl)methanone]
KRAS WT; [1]
  IC50: < 5 µM
KRAS G12S; [2]
  IC50: < 5 µM
KRAS G12D; [3]
  IC50: < 5 µM

## N#Cc1c(N)sc2c(F)ccc(-c3c(Cl)cc4c(N5CC6(CCN6C(=O)n6cnc(Cl)n6)CC5C(F)F)nc(OC[C@@]56CCCN5C[C@H](F)C6)nc4c3F)c12 (stereo partly drawn) [Compound 323, 2-amino-4-(6-chloro-4-(1-(3-chloro-1H-1,2,4-triazole-1-carbonyl)-7-(difluoromethyl)-1,6-diazaspiro[3.4]octan-6-yl)-8-fluoro-2-(((2R,7aS)-2-fluorotetrahydro-1H-pyrrolizin-7a(5H)-yl)methoxy)quinazolin-7-yl)-7-fluorobenzo[b]thiophene-3-carbonitrile]
KRAS WT; [1]
  IC50: > 5 µM
KRAS G12S; [2]
  IC50: < 5 µM
KRAS G12D; [3]
  IC50: > 5 µM

## Nc1nc2c(-c3c(Cl)cc4c(N5CCC6(CCN6)C5)nc(OC[C@@]56CCCN5C[C@H](F)C6)nc4c3F)ccc(F)c2s1 (stereo partly drawn) [Compound 242, 4-(6-chloro-8-fluoro-2-(((2R,7aS)-2-fluorotetrahydro-1H-pyrrolizin-7a(5H)-yl)methoxy)-4-(1,6-diazaspiro[3.4]octan-6-yl)quinazolin-7-yl)-7-fluorobenzo[d]thiazol-2-amine]
KRAS WT; [1]
  IC50: < 5 µM
KRAS G12S; [2]
  IC50: < 5 µM
KRAS G12D; [3]
  IC50: < 5 µM

## N#Cc1c(N)sc2c(F)ccc(-c3c(Cl)cc4c(N5CCC6(CCN6C(=O)n6cccc6C#N)C5)nc(OC[C@@]56CCCN5C[C@H](F)C6)nc4c3F)c12 (stereo partly drawn) [Compound 289, 1-(6-(7-(2-amino-3-cyano-7-fluorobenzo[b]thiophen-4-yl)-6-chloro-8-fluoro-2-(((2R,7aS)-2-fluorotetrahydro-1H-pyrrolizin-7a(5H)-yl)methoxy)quinazolin-4-yl)-1,6-diazaspiro[3.4]octane-1-carbonyl)-1H-pyrrole-2-carbonitrile]
KRAS WT; [1]
  IC50: < 5 µM
KRAS G12S; [2]
  IC50: < 5 µM
KRAS G12D; [3]
  IC50: < 5 µM
